# Values quoted from earlier work, collected in US20250319042A1, “SKIN CARE PRODUCT WITH LAPACHOL AND METHOD FOR USE THEREOF” (priority 2024, published 2025).
# Columns and labels:
# [1] = test system: prostaglandin E2 (PGE2); conditions: in cell culture
# [2] = test system: matrix metalloproteinase 3 (MMP-3); conditions: in cell culture
# [3] = test system: MMP-8; conditions: in cell culture
# [4] = test system: MMP-9; conditions: in cell culture
# [5] = test system: tumor necrosis factor alpha (TNF-a); conditions: in cell culture
Structure (SMILES),inhibition of PGE2 [1],inhibition of MMP-3 [2],inhibition of MMP-8 [3],inhibition of MMP-9 [4],inhibition of TNF-a [5],solubility
CC1(C)CCC2=C(O1)c1ccccc1C(=O)C2=O [beta-lapachone],inhibits,inhibits,inhibits,inhibits,inhibits,–
"CC(C)=CCC1=C(O)C(=O)c2ccccc2C1=O [lapachol, 2-hydroxy-3-(3-methyl-2-butenyl)-1,4-naphtoquinone]",–,–,–,–,–,primarily oil-soluble
